Patent US20160215348A1, “GENE EXPRESSION BIOMARKERS AND THEIR USE FOR DIAGNOSTIC AND PROGNOSTIC APPLICATION IN PATIENTS POTENTIALLY IN NEED OF HDAC INHIBITOR TREATMENT” (4SC AG, priority 2013, published 2016)

Test system: ZFP64
Experiment: qPCR relative expression (vs cycle 1, day 1, hour 0) in patients' whole blood
Assay type: in vivo, human
Conditions: HCC patients; Sorafenib 400 mg added to Resminostat 600 mg
Protocol: 2.5 ml whole blood from patients was collected in PAXgene™ tubes (BD Biosciences) that contain chemicals to lyse the erythrocytes, stabilize RNA from degradation by RNases and minimize ex vivo changes in gene expression. The samples were incubated at 20° C. to 25° C. for 2 hours and then frozen at −20° C. until purification of total RNA.
Total RNA was isolated from the whole blood samples stabilized in PAXgene™ buffer using a spin column based technique suitable for whole blood samples (like PAXgene™ Blood miRNA Kit or PAXgene™ Blood RNA Kit from Qiagen) according to the manufacturer's instructions. The purification began with a centrifugation step to pellet nucleic acids in the (PAXgene™ Blood RNA) tube. The resuspended pellet was incubated in buffers, optimized for maintenance of RNA stability together with proteinase K to bring about protein digestion. An additional centrifugation through the PAXgene™ Shredder spin column was carried out to homogenize the cell lysate and remove residual cell debris, and the supernatant of the flow-through fraction was transferred to a fresh microcentrifuge tube. Ethanol was added to adjust binding conditions, and the lysate was applied to a PAXgene™ RNA spin column. During a brief centrifugation, RNA was selectively bound to the PAXgene™ silica membrane as contaminants pass through. Remaining contaminants were removed in several efficient wash steps. Between the first and second wash steps, the membrane was treated with DNase I, as described herein below in 1.3 to remove trace amounts of bound DNA. After the wash steps, RNA was eluted in nuclease free water and heat-denatured.
The High-Capacity cDNA Reverse Transcription Kit (Applied Biosystems) was used for reverse transcription of total RNA into single stranded cDNA with the aid of random hexamer primers according to the manufacturer's instructions. Briefly, for the reaction mix total RNA was mixed with random primers in excess, 4 mM dNTP Mix, 2.5 U/reaction, reverse transcriptase and nuclease free water. The reverse transcription took place in a thermal cycler under the following conditions: 25° C. for 10 min, 37° C. for 120 min, 85° C. for 5 min, followed by 4° C. for cooling down the reaction. The reverse transcription can be done in principle as well with other reverse transcriptases, primers and temperature protocols. Whenever possible, 250 ng total RNA were reverse transcribed if not available, lower amounts were used.
Custom TaqMan® Arrays (Applied Biosystems) in Format 16 were designed for the gene expression analysis of biomarkers of the present invention and housekeeping genes as outlined in table 4. These arrays allow for qPCR analysis of 8 samples per card. Of course, all reactions can be done as well by conventional qPCR analysis with specific primers.
The reaction mix was transferred into the reaction chambers by centrifuging twice for 1 minute each at 330 g and 4° C. After sealing, the microfluidic cards were run on an AB7900HT instrument (Applied Biosystems). The software SDS 2.4 (Applied Biosystems) was employed for instrument control, data acquisition and raw data analysis. The plates were run in Relative Quantification (ΔΔCt) mode, and the following temperature profile was used:
This analysis was carried out for each patient separately. The first sample (cycle 1, day 1, hour 0) was used as the reference sample. The ‘exprs’ value indicates relative expression levels (fold change values) for individual samples.
Table 5 contains the median expression level values for treatment day 5 (cycle 1, day 5, hours 0, 2, and 5) at a daily dose of 600 mg or 800 mg Resminostat mesylate salt is given below.

CNC(=O)c1cc(Oc2ccc(NC(=O)Nc3ccc(Cl)c(C(F)(F)F)c3)cc2)ccn1 [sorafenib, reference compound]
Effect of additional administration on ZFP64 expression (FIG. 4b): does not affect
